From patent publication US11384113B2, “Cobalamin derivatives and their use for the treatment of diseases caused by lack of vitamin B12 supply” (Albert-Ludwigs-Universitaet Freiburg, priority 2017, dated 2022)
Changes are numbered by the printed parent chain. Read-outs that look alike come from different tables or passages of the source. One block for each molecule: values may come before it.

Key:
[1] = base-on to base-off equilibrium; cited from earlier work
[2] = cited from earlier work
[3] = target: T1, human recombinant CblC pathogenic mutant Arg161Gly (Homo sapiens, UniProt Q9Y4U1, R161G); type: biochemical; conditions: for Product under ambient conditions, Mutant Arg161Gly: dealkylation, 5 mM GSH; for Half-life of beta-axial ligand removal, Mutant Arg161Gly: human, pH 7.6
T1 sequence (Q9Y4U1 1-282 R161G): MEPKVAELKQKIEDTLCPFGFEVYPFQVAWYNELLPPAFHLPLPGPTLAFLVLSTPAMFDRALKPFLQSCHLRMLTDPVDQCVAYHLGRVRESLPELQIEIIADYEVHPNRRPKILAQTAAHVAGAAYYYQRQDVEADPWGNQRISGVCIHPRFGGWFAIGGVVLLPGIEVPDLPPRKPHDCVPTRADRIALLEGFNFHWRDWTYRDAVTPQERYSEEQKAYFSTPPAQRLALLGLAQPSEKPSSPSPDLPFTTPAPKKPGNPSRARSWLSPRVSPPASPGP
Protocol: (§1) The ability of the newly synthesized Cbl derivatives to serve as substrates for CblC was examined (FIG. 12). CblC activity was measured by UV-visible spectroscopy according to published procedures. Analysis of reaction products was performed by mass spectrometry. We measured dealkylation and de-thiolation of Co—C and Co—S bonded Cbl derivatives, respectively, by wild type and mutant CblC proteins to determine whether these reactions could be supported in patients harboring an abnormal isoform of CblC with low or no enzymatic activity.
(§2) First, the ability of novel cobalamins described herein was tested to act as substrate for wild type CblC and to restore the lost activity of pathogenic variants, such as mutant Arg161Gly, that leads to early-onset form of the cblC disease.

[4] = target: T2, human recombinant CblC wild type (Homo sapiens, UniProt Q9Y4U1); type: biochemical; conditions: for Product under ambient conditions, Wild type CblC: dealkylation, 5 mM GSH; for Half-life of beta-axial ligand removal, Wild type CblC: human, pH 7.6
T2 sequence (Q9Y4U1 1-282): T1 sequence (Q9Y4U1 1-282 R161G) with G161R
Protocol: as §1
The enzymatic activity of CblC in the presence of CyaCbl and MPGCbl as substrates was evaluated under the same experimental conditions utilized to examine dealkylation of MeCbl and AdoCbl. […] The reaction was complete in less than 10 seconds, which is the time it takes to record the first spectrum after mixing of CblC-bound to CyaCbl or MPGCbl with 5 mM GSH (FIG. 12).
as §2

[5] = system: fibroblasts isolated from patients with cblC disease; test: MMA in conditioned medium of cblC patient fibroblasts; type: cell-based, human
From the text: (§3) Cultured cells from control (healthy neonatal subjects) or cblC fibroblasts were supplemented without exogenous Cbl (negative control), with commercial CNCbl (current therapy control) or with the newly synthesized cobalamins (test group). The ability of these compounds to support intracellular Cbl metabolism in the absence of CblC was examined by monitoring disease biomarker metabolites Hcy and MMA levels in the conditioned medium.
(§4) The cellular response to treatment with new derivatives CyaCbl and MPGCbl in comparison with current therapeutic form CNCbl was measured. The ability of the new cobalamin derivatives CyaCbl and MPGCbl to achieve metabolic control, i.e. reduction of for example MMA production by cblC fibroblasts in culture, was examined as described in previously published experimental protocols. FIG. 13 provides a comparison of the effect of CNCbl (0.001 mM) versus the same dose of CyaCbl or MPGCbl given to cultured fibroblasts from healthy subjects (HFF, NHDF, PCS, Wiesel, Control) or from cblC patients (WG1801, WG2176, WG3354, GM10011, GM02345B, GM02452C).
(§5) Additional examination of the effect of thiolatocobalamins CyaCbl and MPGCbl and sulfur-containing alkylcobalamin Me-S-MeCbl with respect to structural analogues that are NOT available for therapy was also carried out, for comparative purposes. The results of cellular response (healthy controls and cblC patient fibroblasts) to cobalamin treatment, as reflected by MMA levels is provided in Table 6.

[6] = system: fibroblasts from healthy subjects; test: MMA in conditioned medium of control fibroblasts; type: cell-based, human
From the text: as §3, §4, §5

[7] = GM02345B cblC fibroblasts, after 7 days
[8] = GM02452C cblC fibroblasts, after 7 days
[9] = GM10011 cblC fibroblasts, after 7 days
[10] = WG1801 cblC fibroblasts, after 7 days
[11] = WG2176 cblC fibroblasts, after 7 days
[12] = WG3354 cblC fibroblasts, after 7 days
[13] = cblC patients (group value), after 7 days
[14] = cblC patients, after 7 days wash-off period without supplemental cobalamin
[15] = Controls (group value), after 7 days
[16] = Controls, after 7 days wash-off period without supplemental cobalamin
[17] = HFF control fibroblasts, after 7 days
[18] = NHDF control fibroblasts, after 7 days
[19] = Wiezel control fibroblasts, after 7 days

Molecule: C/C1=C2/[N-][C@H]([C@H](CC(N)=O)[C@@]2(C)CCC(=O)NC[C@@H](C)OP(=O)([O-])O[C@H]2[C@@H](O)[C@@H](n3cnc4cc(C)c(C)cc43)O[C@@H]2CO)[C@]2(C)N=C(/C(C)=C3N=C(/C=C4N=C1[C@@H](CCC(N)=O)C\4(C)C)[C@@H](CCC(N)=O)[C@]\3(C)CC(N)=O)[C@@H](CCC(N)=O)[C@]2(C)CC(N)=O.[CH2-][C@H]1O[C@@H](n2cnc3c(N)ncnc32)[C@H](O)[C@@H]1O.[Co] [AdoCbl, Adenosylcobalamin]
pKa of base on/base off [1]: 3.50
Redox potential [V] relative to NHE ([2]; electrochemical, DMF/methanol): −1.04 V

Molecule: CC1=C2N=C(C=C3N=C(C(C)=C4[N-]C(C(CC(N)=O)C4(C)CCC(=O)NCC(C)OP(=O)([O-])OC4C(CO)OC(n5cnc6cc(C)c(C)cc65)C4O)C4(C)N=C1C(CCC(N)=O)C4(C)CC(N)=O)C(CCC(N)=O)C3(C)C)C(CCC(N)=O)C2(C)CC(N)=O.CCC[CH2][Co+2] (centres unmarked) [BuCbl, butylcobalamin, reference compound]
Product under ambient conditions, Mutant Arg161Gly [3]: No reaction
Half-life of beta-axial ligand removal, Mutant Arg161Gly [3]: 0 min
Product under ambient conditions, Wild type CblC [4]: H2OCbl
Half-life of beta-axial ligand removal, Wild type CblC [4]: 1155 min

Molecule: C/C1=C2/[N-][C@H]([C@H](CC(N)=O)[C@@]2(C)CCC(=O)NC[C@@H](C)OP(=O)([O-])O[C@H]2[C@@H](O)[C@@H](n3cnc4cc(C)c(C)cc43)O[C@@H]2CO)[C@]2(C)N=C(/C(C)=C3N=C(/C=C4N=C1[C@@H](CCC(N)=O)C\4(C)C)[C@@H](CCC(N)=O)[C@]\3(C)CC(N)=O)[C@@H](CCC(N)=O)[C@]2(C)CC(N)=O.[Co].[OH3+] [H2O, Aquacobalamin]
pKa of base on/base off [1]: −2.40
Redox potential [V] relative to NHE ([2]; 22° C.): 0.20 V

Product under ambient conditions, Mutant Arg161Gly [3]: Cob(II)alamin
Half-life of beta-axial ligand removal, Mutant Arg161Gly [3]: 60 min
Product under ambient conditions, Wild type CblC [4]: H2OCbl
Half-life of beta-axial ligand removal, Wild type CblC [4]: 10 min
Molecule: C/C1=C2/[N-][C@H]([C@H](CC(N)=O)[C@@]2(C)CCC(=O)NC[C@H](C)OP(=O)([O-])O[C@H]2[C@@H](O)[C@@H](n3cnc4cc(C)c(C)cc43)O[C@@H]2CO)[C@]2(C)N=C(/C(C)=C3N=C(/C=C4N=C1[C@@H](CCC(N)=O)C\4(C)C)[C@@H](CCC(N)=O)[C@]\3(C)CC(N)=O)[C@@H](CCC(N)=O)[C@]2(C)CC(N)=O.[CH3-].[Co+3] [MeCbl, Methylcobalamin, reference compound]
MMA in conditioned medium [5, 7]: 0.250 μmol/mg protein
MMA in conditioned medium [5, 8]: 0.243 μmol/mg protein
MMA in conditioned medium [5, 9]: 0.066 μmol/mg protein
MMA in conditioned medium [5, 10]: 0.429 μmol/mg protein
MMA in conditioned medium [5, 11]: 0.459 μmol/mg protein
MMA in conditioned medium [5, 12]: 0.891 μmol/mg protein
MMA in conditioned medium [5, 13]: 0.390 μmol/mg protein
MMA in conditioned medium [5, 14]: 0.298 μmol/mg protein
pKa of base on/base off [1]: 2.90
Redox potential [V] relative to NHE ([2]; electrochemical, 20° C.): −1.20 V
MMA in conditioned medium [6, 15]: 0.118 μmol/mg protein
MMA in conditioned medium [6, 16]: 0.131 μmol/mg protein
MMA in conditioned medium [6, 17]: 0.106 μmol/mg protein
MMA in conditioned medium [6, 18]: 0.152 μmol/mg protein
MMA in conditioned medium [6, 19]: 0.095 μmol/mg protein

Molecule: CC1=C2N=C(C=C3N=C(C(C)=C4[N-]C(C(CC(N)=O)C4(C)CCC(=O)NCC(C)OP(=O)([O-])OC4C(CO)OC(n5cnc6cc(C)c(C)cc65)C4O)C4(C)N=C1C(CCC(N)=O)C4(C)CC(N)=O)C(CCC(N)=O)C3(C)C)C(CCC(N)=O)C2(C)CC(N)=O.CSC[CH2][Co+2] (centres unmarked) [Me—S—EtCbl]
Product under ambient conditions, Mutant Arg161Gly [3]: Cob(II)alamin
Half-life of beta-axial ligand removal, Mutant Arg161Gly [3]: 11.5 min
Product under ambient conditions, Wild type CblC [4]: H2OCbl/Cob(II)alamin
Half-life of beta-axial ligand removal, Wild type CblC [4]: 7.5 min

Molecule: CC1=C2N=C(C=C3N=C(C(C)=C4[N-]C(C(CC(N)=O)C4(C)CCC(=O)NCC(C)OP(=O)([O-])OC4C(CO)OC(n5cnc6cc(C)c(C)cc65)C4O)C4(C)N=C1C(CCC(N)=O)C4(C)CC(N)=O)C(CCC(N)=O)C3(C)C)C(CCC(N)=O)C2(C)CC(N)=O.CS[CH2][Co+2] (centres unmarked) [Me—S—MeCbl]
MMA in conditioned medium [5, 7]: 0.150 μmol/mg protein
MMA in conditioned medium [5, 8]: 0.150 μmol/mg protein
MMA in conditioned medium [5, 9]: 0.041 μmol/mg protein
MMA in conditioned medium [5, 10]: 0.254 μmol/mg protein
MMA in conditioned medium [5, 11]: 0.083 μmol/mg protein
MMA in conditioned medium [5, 12]: 0.148 μmol/mg protein
MMA in conditioned medium [5, 13]: 0.138 μmol/mg protein
MMA in conditioned medium [5, 14]: 0.177 μmol/mg protein
Product under ambient conditions, Mutant Arg161Gly [3]: Cob(II)alamin
Half-life of beta-axial ligand removal, Mutant Arg161Gly [3]: 12 min
MMA in conditioned medium [6, 15]: 0.122 μmol/mg protein
MMA in conditioned medium [6, 16]: 0.145 μmol/mg protein
MMA in conditioned medium [6, 17]: 0.132 μmol/mg protein
MMA in conditioned medium [6, 18]: 0.103 μmol/mg protein
MMA in conditioned medium [6, 19]: 0.132 μmol/mg protein
Product under ambient conditions, Wild type CblC [4]: H2OCbl/Cob(II)alamin
Half-life of beta-axial ligand removal, Wild type CblC [4]: 8.5 min

Molecule: CC1=C2N=C(C=C3N=C(C(C)=C4[N-]C(C(CC(N)=O)C4(C)CCC(=O)NCC(C)OP(=O)([O-])OC4C(CO)OC(n5cnc6cc(C)c(C)cc65)C4O)C4(C)N=C1C(CCC(N)=O)C4(C)CC(N)=O)C(CCC(N)=O)C3(C)C)C(CCC(N)=O)C2(C)CC(N)=O.O=[N+]([O-])[Co+2] (centres unmarked) [NO2]
pKa of base on/base off [1]: −0.15

Molecule: CC1=C2N=C(C=C3N=C(C(C)=C4[N-]C(C(CC(N)=O)C4(C)CCC(=O)NCC(C)OP(=O)([O-])OC4C(CO)OC(n5cnc6cc(C)c(C)cc65)C4O)C4(C)N=C1C(CCC(N)=O)C4(C)CC(N)=O)C(CCC(N)=O)C3(C)C)C(CCC(N)=O)C2(C)CC(N)=O.CC[CH2][Co+2] (centres unmarked) [PrCbl, propylcobalamin, reference compound]
Product under ambient conditions, Mutant Arg161Gly [3]: No reaction
Half-life of beta-axial ligand removal, Mutant Arg161Gly [3]: 0 min
Product under ambient conditions, Wild type CblC [4]: H2OCbl
Half-life of beta-axial ligand removal, Wild type CblC [4]: 318 min

Molecule: CC1=C2N=C(C=C3N=C(C(C)=C4[N-]C(C(CC(N)=O)C4(C)CCC(=O)NCC(C)OP(=O)([O-])OC4C(CO)OC(n5cnc6cc(C)c(C)cc65)C4O)C4(C)N=C1C(CCC(N)=O)C4(C)CC(N)=O)C(CCC(N)=O)C3(C)C)C(CCC(N)=O)C2(C)CC(N)=O.N#C[S][Co+2] (centres unmarked) [SCN^−]
pKa of base on/base off [1]: 3.40

Molecule: cyanocobalamin [CNCbl]
pKa of base on/base off [1]: 0.10
Redox potential [V] relative to NHE ([2]; electrochemical, DMSO/propanol): −0.76 V
